c1ccc2c(c1)oc1ccccc12
solubility (mole fraction)
Conditions | in diisopropyl ether | in ethanol | in ethyl acetate | in n-butanol | in tetrachloromethane | in toluene
283.15 K | 0.0838 | 0.0211 | 0.145 | 0.0281 | 0.134 | 0.158
288.15 K | 0.104 | 0.0271 | 0.168 | 0.0326 | 0.161 | 0.185
293.15 K | 0.13 | 0.0322 | 0.199 | 0.0421 | 0.191 | 0.223
298.15 K | 0.155 | 0.0414 | 0.232 | 0.0531 | 0.216 | 0.266
303.15 K | 0.183 | 0.0489 | 0.269 | 0.0671 | 0.264 | 0.301
308.15 K | 0.237 | 0.0707 | 0.328 | 0.0877 | 0.307 | 0.344
313.15 K | 0.284 | 0.102 | 0.387 | 0.107 | 0.354 | 0.399
318.15 K | 0.341 | 0.134 | 0.441 | 0.166 | 0.412 | 0.455
323.15 K | 0.412 | 0.197 | 0.502 | 0.23 | 0.491 | 0.514
328.15 K | 0.508 | 0.283 | 0.565 | 0.364 | 0.548 | 0.582
333.15 K | 0.58 | 0.334 | 0.625 | 0.514 | 0.635 | 0.624

— BigSolDB 2.1
